Data from patent publication US4783402A, “Production of primary or secondary alcohol derivatives of phospholipids by the enzymatic technique” (Meito Sangyo Kabushiki Kaisha, priority 1983, dated 1988).

Assays:
[1] = tested on: phospholipase DM derived from the Actinomadura strain (Actinomadura sp. No. 362, FERM-P No. 6132; BP 511); assay: Influences of various substances on enzyme activity (choline oxidase method, egg-yolk lecithin substrate); type: biochemical; settings: substance at 1 mM in the enzyme reaction system, added instead of the aqueous calcium chloride solution; lecithin emulsion, Tris-HCl pH 7.2, 37° C., 20 minutes
Protocol: (§1) The enzyme activity of the phospholipase DM utilized in the process of this invention is determined by measuring the amount of a base which is formed when the phospholipase DM acts on the substrate glycerophospholipid to decompose the ester linkage between phosphoric acid and the nitrogen-containing base. Unless otherwise indicated, the activity of phospholipase DM is measured by the choline oxidase method to be described hereinafter.
(§2) Distilled water (0.15 ml), 0.1 ml of 0.2M Tris-HCl buffer (pH 7.2) and 0.05 ml of 0.1M aqueous calcium chloride solution are mixed with 0.1 ml of 1% emulsion of purified lecithin from egg yolk (an emulsion of 0.1 g of lecithin, 1 ml of ethyl ether and 10 ml of distilled water obtained by ultrasonication). To the mixture is added 0.1 ml of an enzyme solution and reacted at 37° C. for 20 minutes. Then, 0.2 ml of 1M Tris-HCl buffer (pH 8.0) containing 50 mM disodium ethylenediamine tetraacetate, and immediately then, the mixture is boiled for 5 minutes, followed by completely stopping the reaction. Then, 4 ml of a solution obtained by dissolving a choline color-forming agent contained in a kit of a reagent for choline esterase measurement (produced by Nippon Shoji Co., Ltd.) in a color dissolving liquid is added, and reacted at 37° C. for 20 minutes. Then, the absorbance of the reaction solution at 500 nm is measured.
(§3) As a control, the absorbance of the product obtained by the same procedure as above except that an enzyme solution previously deactivated by heat is used.
(§4) The activity of the enzyme to liberate 1 micromole of choline per minute is defined as one unit.
(§5) In the method of measuring the activity of the enzyme described hereinabove, 0.05 ml of an aqueous solution of each of various substances is added instead of the aqueous calcium chloride solution so that its concentration in the enzyme reaction system becomes 1 mM. The activity of the enzyme is then measured. The activity of the enzyme at the time of adding water is taken as 100, and the relative activity of the enzyme is determined.

[2] = tested on: phospholipase DM derived from the Nocardiopsis strain (Nocardiopsis sp. No. 779, FERM-P No. 6133; BP 512); assay: as above; type: biochemical; settings: substance at 1 mM in the enzyme reaction system, added instead of the aqueous calcium chloride solution; lecithin emulsion, Tris-HCl pH 7.2, 37° C., 20 minutes
Protocol: as §1, §2, §3, §4, §5

SMILES | influence on the activity of the enzyme (relative activity, activity at the time of adding water taken as 100) [1] | influence on the activity of the enzyme (relative activity, activity at the time of adding water taken as 100) [2]
CCO [ethanol] | activating action | activating action
CC(C)O [isopropanol] | activating action | activating action
CC(C)(C)O [t-butanol] | activating action | activating action
